The values that follow come from patent US20050085554A1, “Methods of treating disease through the administration of a manzamine analog or derivative” (priority 2003, published 2005).

The test system of one series is Cryptococcus neoformans. The series can be described thus: Antifungal activity against Cryptococcus neoformans. The class given is cell-based.
For the next series, the system named is Aspergillus fumigatus. Briefly: Antifungal activity against Aspergillus fumigatus. The class given is cell-based. The conditions noted are these: T6, footnote a: the lowest concentration that significantly inhibits growth.
For series [1], the system named is Plasmodium falciparum (D6 clone). The series can be described thus: Antimalarial activity in vitro, D6 clone. In kind it is cell-based. The note with it: Plasmodium falciparum, D6; T6.
The test system of series [2] is Mycobacterium intracellulare. The series can be described thus: Activity against M. intracellulare. In kind it is cell-based. The conditions noted are these: Mycobacterium intracellulare; T6; read-out: Mycobacterium intracellulare IC50.
The test system of series [3] is methicillin-resistant Staphylococcus aureus. The series can be described thus: Antibacterial activity against MRS. In kind it is cell-based. The conditions noted are these: T6.
Series [4] relates to Mycobacterium tuberculosis H37Rv. The series can be described thus: In vitro antimycobacterial activity (Microplate Alamar Blue Assay), MIC. The class given is cell-based.
Another series relates to Staphylococcus aureus. Briefly: Antibacterial activity against S. aureus. In kind it is cell-based. The note with it: Staphylococcus aureus, T6.
For another series, the system named is Candida albicans. The series can be described thus: Antifungal activity against Candida albicans. The class given is cell-based.
The test system of series [5] is P. falciparum (chlorine-resistant W2 clone). The series can be described thus: Antimalarial activity in vitro, W2 clone. The class given is cell-based, Plasmodium falciparum. The note with it: Plasmodium falciparum, W2; T6; read-out: P. falciparum (W2 clone) IC50.
Another series concerns Leishmania donovani. The series can be described thus: Antileishmanial activity in vitro. The note with it: T4. The class given is cell-based.
A further series concerns HIV-1LAV. Briefly: Anti-HIV-1 activity in PBM cells. In kind it is cell-based, human immunodeficiency virus (HIV-1). As to the method:
Anti-HIV-1 activity was determined in PBM cells as described previously. See, Stock solutions (20 or 40 mM) of the compounds were prepared in sterile DMSO and then diluted to the desired concentration in growth medium. Cells were infected with the prototype HIV-1LAV at a multiplicity of infection of 0.1. Details on the infection of cells and assessment of antiviral effects was described previously. See, Schinazi, R. F.; McMillan, A.; Cannon, D.; Mathis, R.; Lloyd, R. M.; Peck, A.; Sommadossi, J.-P.; Clair, M. S.; Wilson, J.; Furman, P. A.; Painter G.; Choi, W.-B.; Liotta, D. C. Antimicrob. Agents Chemother. 1992, 36, 2423-2431 and Schinazi, R. F.; Sommadossi, J.-P.; Saalmann, V.; Cannon, D. L.; Xie, M.-Y.; Hart, G. C.; Smith, G. A.; Hahn, E. F. Antimicrob. Agents Chemother. 1990, 34, 1061-1067.

Series [6] concerns human colon carcinoma H-116.
The subject of series [7] is human lung carcinoma A-549.

Converted amounts (≈) assume the structure as drawn. Where only a bound is given, the exact number is not on record here.

On to `C1=C/[C@@H]2[C@H]3CCCC[C@@H]3C[C@@H]2NCCCNC2C[C@H]3CCCC[C@@H]3[C@H]2/C=C/1` (single isomer, unassigned; (-)) [Papuamine, (−)-papuamine], for which the MIC in the series with Cryptococcus neoformans (Cryptococcus neoformans, lowest concentration that allows no detectable growth) was found to be 0.63 µg/mL (≈ 1.71 µM); against Aspergillus fumigatus (Aspergillus fumigatus), 1.25 µg/mL (≈ 3.39 µM); in series [3] (Staphylococcus aureus), 5 µg/mL (≈ 13.6 µM); in series [4] (Mycobacterium tuberculosis, H37RV, T6, read-out: Mycobacterium tuberculosis MIC) it was 0.4 µg/mL (≈ 1.09 µM); in the series on Staphylococcus aureus, 5 µg/mL (≈ 13.6 µM); with Candida albicans (Candida albicans, T6, MIC: lowest concentration that allows no detectable growth) it was 5 µg/mL (≈ 13.6 µM). Moreover, the IC50 came to 0.35 µg/mL (≈ 0.95 µM) in the series with Cryptococcus neoformans (Cryptococcus neoformans, read-out: Cryptococcus neoformans IC50); 0.15 µg/mL (≈ 0.407 µM) in [1]; 4 µg/mL (≈ 10.9 µM) in series [2]; 2.5 µg/mL (≈ 6.78 µM) in [3] (MRS: methicillin-resistant Staphylococcus aureus, read-out: MRS IC50); 2.5 µg/mL (≈ 6.78 µM) with Staphylococcus aureus (read-out: Staphylococcus aureus IC50); 1.5 µg/mL (≈ 4.07 µM) with Candida albicans (Candida albicans, T6). For the same molecule, the IC50 in series [5] amounted to 0.34 µg/mL (≈ 0.922 µM).

Take `C[C@@H]1[C@H](O)[C@@H](C)/C=C/C=C/C=C/C=C/C=C/C=C/C=C/[C@H](O[C@@H]2O[C@H](C)[C@@H](O)[C@H](N)[C@@H]2O)C[C@@H]2O[C@](O)(C[C@@H](O)C[C@@H](O)[C@H](O)CC[C@@H](O)C[C@@H](O)CC(=O)O[C@H]1C)C[C@H](O)[C@H]2C(=O)O` [Amphotericin B, reference compound]: in the series with Cryptococcus neoformans, the “Cryptococcus neoformans IC50” value stood at 0.25 µg/mL. Also, the “Antifungal IC50 C. neoformans” value with Cryptococcus neoformans (T5, NA = not active) was found to be 0.15 µg/mL. Further, the “Cryptococcus neoformans MIC” value in the series with Cryptococcus neoformans (lowest concentration that allows no detectable growth) was determined as 0.63 µg/mL. The “Aspergillus fumigatus MIC” value with Aspergillus fumigatus is listed as 0.63^a μg/mL. The “Candida albicans IC50” value in the series on Candida albicans (T6) stood at 0.10 µg/mL. In addition, the “Candida albicans MIC” value with Candida albicans (T6, MIC: lowest concentration that allows no detectable growth) is 0.63 µg/mL. Moreover, in the series with Leishmania donovani, the “Leishmania donovani IC 50” value came to 0.06 µg/mL and the “Leishmania donovani IC 90” value turned out to be 0.15 µg/mL.

As to `CC(=O)C[C@H]1C[C@H]2[C@H]([C@@H]3c4[nH]c5ccccc5c4CCN13)[C@H](O)C13CC/C=C\CCCCN1CC21C2CCCCCCCN2[C@H]13` (stereo partly shown) [Manadomanzamine A], the “MIC against Mycobacterium tuberculosis (Mtb)” value in [4] (rifampin = positive control) worked out at 1.86 µg/mL (≈ 3.04 µM). Also, the “EC50 against human immunodeficiency virus (HIV-1)” value in the series on HIV-1LAV is 6.96 µg/mL (≈ 11.4 µM). Moreover, the “IC50 against human colon carcinoma H-116” value in [6] was 5.0 µg/mL (≈ 8.18 µM). The “IC50 against human lung carcinoma A-549” value in [7] was 2.5 µg/mL (≈ 4.09 µM). Moreover, the “IC50 against the fungus Candida albicans” value in the series on Candida albicans was 20 µg/mL (≈ 32.7 µM).

xestomanzamine A: the “IC50 against the fungus Cryptococcus neoformans” value in the series on Cryptococcus neoformans amounted to 6.0 µg/mL. In addition, the “Anti-TB MIC” value in series [4] (T1, no unit in table) is 14.1 µg/mL. In addition, in the series with HIV-1LAV, the “EC50 against human immunodeficiency virus (HIV-1)” value came to 11.2 µg/mL. Further, the “Cytotoxicity IC50 H-116” value in [6] is above 5 µg/mL. In addition, the “Cytotoxicity IC50 A-594” value in [7] was above 5 µg/mL.
